Toxic doses and inconclusive results are not listed. No stated cut-off is given here; in the data, active means T/C of 150% or more; inactive means T/C below 125%.
Test system: L1210 leukemia ip in BDF1 mice, survival T/C
Assay: NCI In Vivo Anticancer Drug Screen. Data for tumor model L1210 Leukemia (intraperitoneal) in B6D2F1 (BDF1) mice
Details: endpoint: mean survival time, higher = longer survival
How it was run: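 Tumor cells were implanted, animals were treated, and survival was followed. The result divides the treated measurement by the vehicle-control measurement.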

[1] = dose: 100.0 mg/kg/injection, schedule: Q04DX003 (ip), vehicle: Klucel (hydroxypropylcellulose) (HPC)
[2] = dose: 200.0 mg/kg/injection, schedule: Q04DX003 (ip), vehicle: Klucel (hydroxypropylcellulose) (HPC)
[3] = dose: 400.0 mg/kg/injection, schedule: Q04DX003 (ip), vehicle: Klucel (hydroxypropylcellulose) (HPC)
[4] = dose: 75.0 mg/kg/injection, schedule: Q01DX001 (ip), vehicle: saline
[5] = dose: 150.0 mg/kg/injection, schedule: Q01DX001 (ip), vehicle: saline
[6] = dose: 50.0 mg/kg/injection, schedule: Q01DX001 (ip), vehicle: saline
[7] = dose: 50.0 mg/kg/injection, schedule: Q04DX003 (ip), vehicle: Klucel (hydroxypropylcellulose) (HPC)
[8] = dose: 100.0 mg/kg/injection, schedule: Q01DX001 (ip), vehicle: saline
[9] = dose: 100.0 mg/kg/injection, schedule: Q01DX009 (ip), vehicle: saline
[10] = dose: 200.0 mg/kg/injection, schedule: Q01DX001 (ip), vehicle: saline
[11] = dose: 200.0 mg/kg/injection, schedule: Q01DX009 (ip), vehicle: saline
[12] = dose: 400.0 mg/kg/injection, schedule: Q01DX001 (ip), vehicle: saline
[13] = dose: 400.0 mg/kg/injection, schedule: Q01DX009 (ip), vehicle: saline
[14] = dose: 100.0 mg/kg/injection, schedule: Q04DX003 (ip), vehicle: saline with Tween-80
[15] = dose: 200.0 mg/kg/injection, schedule: Q04DX003 (ip), vehicle: saline with Tween-80
[16] = dose: 400.0 mg/kg/injection, schedule: Q04DX003 (ip), vehicle: saline with Tween-80
[17] = dose: 100.0 mg/kg/injection, schedule: Q04DX002 (ip), vehicle: Klucel (hydroxypropylcellulose) (HPC)
[18] = dose: 100.0 mg/kg/injection, schedule: Q04DX003 (ip), vehicle: saline
[19] = dose: 200.0 mg/kg/injection, schedule: Q04DX003 (ip), vehicle: saline
[20] = dose: 400.0 mg/kg/injection, schedule: Q04DX003 (ip), vehicle: saline

Measured: T/C

O=C(CCCC(=O)N1CCOCC1)N1CCOCC1
inactive: [1] 108 % of control | [2] 103 % of control | [3] 101 % of control

C/C=C/CC1(CC)C(=O)NC(=S)NC1=O
inactive: [4] 107 % of control | [5] 113 % of control

O=[N+]([O-])c1cccc(Cl)c1O
inactive: dose: 100.0 mg/kg/injection, schedule: Q01DX001 (ip), vehicle: gum acacia 98 % of control | dose: 200.0 mg/kg/injection, schedule: Q01DX001 (ip), vehicle: gum acacia 100 % of control

O=C1CCC(N2C(=O)c3ccccc3C2=O)C(=O)N1 (stereo not given)
inactive: dose: 25.0 mg/kg/injection, schedule: Q01DX009 (ip), vehicle: Klucel (hydroxypropylcellulose) (HPC) 112 % of control | dose: 25.0 mg/kg/injection, schedule: Q04DX003 (ip), vehicle: Klucel (hydroxypropylcellulose) (HPC) 109 % of control | dose: 31.3 mg/kg/injection, schedule: Q01DX Z (ip), vehicle: saline 102 % of control | [6] 105 % of control | dose: 50.0 mg/kg/injection, schedule: Q01DX009 (ip), vehicle: Klucel (hydroxypropylcellulose) (HPC) 111 % of control | [7] 95 % of control | dose: 62.5 mg/kg/injection, schedule: Q01DX Z (ip), vehicle: saline 94 % of control | [8] 105 % of control | dose: 100.0 mg/kg/injection, schedule: Q01DX009 (ip), vehicle: Klucel (hydroxypropylcellulose) (HPC) 103 % of control | [9] 96 % of control | [1] 98 % of control | dose: 125.0 mg/kg/injection, schedule: Q01DX Z (ip), vehicle: saline 104 % of control | [10] 111 % of control | dose: 200.0 mg/kg/injection, schedule: Q01DX009 (ip), vehicle: Klucel (hydroxypropylcellulose) (HPC) 100 % of control | [11] 102 % of control | [2] 98 % of control | dose: 250.0 mg/kg/injection, schedule: Q01DX Z (ip), vehicle: saline 102 % of control | [12] 109 % of control | dose: 400.0 mg/kg/injection, schedule: Q01DX009 (ip), vehicle: Klucel (hydroxypropylcellulose) (HPC) 101 % of control | [13] 98 % of control | [3] 106 % of control | dose: 800.0 mg/kg/injection, schedule: Q01DX009 (ip), vehicle: saline 95 % of control

CCC[n+]1nsc2ccccc21
inactive: [8] 101 % of control

C=C([Si](C)(C)C)[Si](C)(C)C
inactive: [14] 102 % of control | [15] 102 % of control | [16] 94 % of control

Cc1cc2c(c(=O)n1C)COC2=O
inactive: dose: 100.0 mg/kg/injection, schedule: Q04DX003 (ip), vehicle: other 100 % of control | dose: 200.0 mg/kg/injection, schedule: Q04DX003 (ip), vehicle: other 100 % of control | dose: 400.0 mg/kg/injection, schedule: Q04DX003 (ip), vehicle: other 98 % of control

CCOC(=O)/C=C/c1ccc([N+](=O)[O-])cc1
inactive: [1] 95 % of control | [2] 102 % of control | [3] 98 % of control

O=C(Nc1ccc(Br)cc1C(=O)O)c1cccc(Br)c1
inactive: dose: 100.0 mg/kg/injection, schedule: Q01DX001 (ip), vehicle: other 103 % of control

CCCCCCCCC1NC1CCCCCCCCO (stereo not given)
inactive: [17] 103 % of control | dose: 200.0 mg/kg/injection, schedule: Q04DX002 (ip), vehicle: Klucel (hydroxypropylcellulose) (HPC) 103 % of control | dose: 400.0 mg/kg/injection, schedule: Q04DX002 (ip), vehicle: Klucel (hydroxypropylcellulose) (HPC) 100 % of control

c1ccc2c(c1)NCCN2
inactive: dose: 12.5 mg/kg/injection, schedule: Q01DX001 (ip), vehicle: saline 97 % of control | dose: 25.0 mg/kg/injection, schedule: Q01DX001 (ip), vehicle: saline 94 % of control

COc1ccc(/C=C/C(=O)c2ccccc2)cc1Br
inactive: [14] 100 % of control | [15] 96 % of control | [16] 96 % of control

Cc1ccc(C)c2c(CC(=O)O)c[nH]c12
inactive: dose: 100.0 mg/kg/injection, schedule: Q01DX001 (ip), vehicle: saline with Tween-80 100 % of control | dose: 200.0 mg/kg/injection, schedule: Q01DX001 (ip), vehicle: saline with Tween-80 107 % of control | dose: 400.0 mg/kg/injection, schedule: Q01DX001 (ip), vehicle: saline with Tween-80 102 % of control

CC1(C)C(=O)C(C)(C)C1=NO
inactive: [18] 103 % of control | [19] 95 % of control | [20] 103 % of control

CS(=O)(=O)OC1CCCCCCC1OS(C)(=O)=O (stereo not given)
inactive: [7] 103 % of control | dose: 100.0 mg/kg/injection, schedule: Q01DX001 (ip), vehicle: Klucel (hydroxypropylcellulose) (HPC) 98 % of control | [1] 104 % of control | dose: 200.0 mg/kg/injection, schedule: Q01DX001 (ip), vehicle: Klucel (hydroxypropylcellulose) (HPC) 98 % of control | [2] 98 % of control | dose: 400.0 mg/kg/injection, schedule: Q01DX001 (ip), vehicle: Klucel (hydroxypropylcellulose) (HPC) 104 % of control | [3] 104 % of control

CN(C)c1ccc(/C=N\NC(=O)CCCC(=O)N/N=C/c2ccc(N(C)C)cc2Cl)c(Cl)c1
inactive: [6] 98 % of control | [8] 98 % of control | [10] 102 % of control | [12] 102 % of control

Cc1ccc(S(=O)(=O)NN=C2CCCCC2)cc1
inactive: [4] 90 % of control | [5] 90 % of control | dose: 300.0 mg/kg/injection, schedule: Q01DX001 (ip), vehicle: saline 90 % of control

CCN(CC)CCNCCO
inactive: [9] 89 % of control | [18] 95 % of control | [11] 94 % of control | [19] 92 % of control | [13] 89 % of control | [20] 92 % of control

CCN(CC)CCOC(=O)C1c2ccccc2Oc2ccccc21
inactive: dose: 100.0 mg/kg/injection, schedule: Q01DX001 (ip), vehicle: carboxymethylcellulose (CMC) 102 % of control | dose: 200.0 mg/kg/injection, schedule: Q01DX001 (ip), vehicle: carboxymethylcellulose (CMC) 94 % of control

CCC(NC(=O)c1cnc2ccccc2n1)C(=O)O (stereo not given)
inactive: [18] 101 % of control | [19] 92 % of control | [20] 90 % of control

CCOC(=S)SCC(=O)CSC(=S)OCC
inactive: dose: 25.0 mg/kg/injection, schedule: Q04DX002 (ip), vehicle: Klucel (hydroxypropylcellulose) (HPC) 103 % of control | dose: 50.0 mg/kg/injection, schedule: Q04DX002 (ip), vehicle: Klucel (hydroxypropylcellulose) (HPC) 97 % of control | [17] 110 % of control

OC12CCCCC1Oc1ccc3ccccc3c12 (stereo not given)
inactive: [8] 103 % of control | [10] 113 % of control | [12] 100 % of control
